Experimental data as given in paper PMC10379611 (International Journal of Molecular Sciences, 2023).

Tests used:
Assay type in all cases: cell-based
CNT1 = target: T1, CNT1 (Homo sapiens, UniProt O00337); assay: CNT1-mediated uridine uptake in CNT1-MDCKII cells; settings: for IC50: MDCKII cells, 1 µM uridine
T1 construct: expressed in transfected cells; host or cells: MDCKII (lentiviral transduction)
T1 sequence (O00337 1-649): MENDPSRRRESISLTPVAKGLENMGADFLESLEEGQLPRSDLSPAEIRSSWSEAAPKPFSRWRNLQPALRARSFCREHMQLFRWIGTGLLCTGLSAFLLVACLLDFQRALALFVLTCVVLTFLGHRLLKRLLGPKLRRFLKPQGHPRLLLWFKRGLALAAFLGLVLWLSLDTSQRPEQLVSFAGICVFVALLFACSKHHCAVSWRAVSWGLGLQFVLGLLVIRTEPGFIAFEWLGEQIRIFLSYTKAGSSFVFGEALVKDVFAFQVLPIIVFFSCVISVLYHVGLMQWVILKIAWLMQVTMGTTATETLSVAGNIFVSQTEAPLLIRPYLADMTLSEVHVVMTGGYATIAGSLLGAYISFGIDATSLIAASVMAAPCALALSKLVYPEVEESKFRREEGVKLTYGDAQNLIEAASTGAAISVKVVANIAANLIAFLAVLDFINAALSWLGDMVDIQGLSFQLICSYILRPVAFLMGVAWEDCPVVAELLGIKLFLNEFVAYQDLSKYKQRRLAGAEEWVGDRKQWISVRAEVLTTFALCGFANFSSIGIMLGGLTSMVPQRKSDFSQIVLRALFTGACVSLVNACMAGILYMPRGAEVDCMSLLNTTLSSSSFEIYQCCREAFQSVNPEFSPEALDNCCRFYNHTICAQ
Protocol: ENT and CNT transporter interactions were investigated in transporter-overexpressing cell lines. Madin-Darby Canine Kidney II (MDCKII) cell lines overexpressing the human uptake transporters CNT1, CNT2, ENT1, and ENT2 were generated via lentiviral transduction. Cell cultures were maintained in Dulbecco’s modified Eagle’s medium (DMEM) and 4500 mg/L of glucose supplemented with GlutaMax^TM, 10% v/v fetal bovine serum (FBS), 100 units/mL penicillin, and 100 µg/mL streptomycin (all from Gibco/ThermoFisher, Waltham, MA, USA) at 37 °C in 5% CO2 at 95% humidity. For uptake inhibition assays, transporter-expressing cells and mock-transduced control cells were seeded on 96-well tissue culture plates at a density of 1 × 10^5 cells/well. Twenty-four hours after seeding, cells were rinsed twice with Krebs-Henseleit buffer (KH buffer, pH 7.4) and then preincubated for 30 min with solutions containing serial dilutions of the test compounds in KH at room temperature. Following preincubation, the solutions were removed, the cells were rinsed twice with KH buffer, and coincubation was started with a suitable radiolabeled substrate and the diluted series of test compounds. Assay conditions were as follows: 1 µM uridine (traced with 0.1 µCi ^3H-Uridine/well), 30 s (CNT1), and 1 min (CNT2, ENT1) incubations; 1 µM adenosine (traced with 0.1 µCi ^3H-Adenosine/well) and 2 min (ENT2) incubation. All experiments were conducted at room temperature. […] Uptake was terminated by rinsing twice with ice-cold KH buffer, and cells were lysed with 0.1 M NaOH. To determine the amounts of accumulated radiolabeled substrates, cell lysates mixed with a liquid scintillation cocktail were measured with a MicroBeta2 microplate counter (PerkinElmer, Singapore).
(§1) Transporter-specific accumulation of the probe substrate was calculated using the following formula: ACCSpec = ACCTRP − ACCMock, where ACCTRP is the accumulation of the probe in transporter-expressing cells and ACCMock is the accumulation of the probe in control cells. Relative transporter-specific accumulation values were calculated as percentages of the control value (with vehicle only).

CNT2 = target: T2, CNT2 (Homo sapiens, UniProt O43868); assay: CNT2-mediated uridine uptake in CNT2-MDCKII cells
T2 construct: expressed in transfected cells; host or cells: MDCKII (lentiviral transduction)
T2 sequence (O43868 1-658): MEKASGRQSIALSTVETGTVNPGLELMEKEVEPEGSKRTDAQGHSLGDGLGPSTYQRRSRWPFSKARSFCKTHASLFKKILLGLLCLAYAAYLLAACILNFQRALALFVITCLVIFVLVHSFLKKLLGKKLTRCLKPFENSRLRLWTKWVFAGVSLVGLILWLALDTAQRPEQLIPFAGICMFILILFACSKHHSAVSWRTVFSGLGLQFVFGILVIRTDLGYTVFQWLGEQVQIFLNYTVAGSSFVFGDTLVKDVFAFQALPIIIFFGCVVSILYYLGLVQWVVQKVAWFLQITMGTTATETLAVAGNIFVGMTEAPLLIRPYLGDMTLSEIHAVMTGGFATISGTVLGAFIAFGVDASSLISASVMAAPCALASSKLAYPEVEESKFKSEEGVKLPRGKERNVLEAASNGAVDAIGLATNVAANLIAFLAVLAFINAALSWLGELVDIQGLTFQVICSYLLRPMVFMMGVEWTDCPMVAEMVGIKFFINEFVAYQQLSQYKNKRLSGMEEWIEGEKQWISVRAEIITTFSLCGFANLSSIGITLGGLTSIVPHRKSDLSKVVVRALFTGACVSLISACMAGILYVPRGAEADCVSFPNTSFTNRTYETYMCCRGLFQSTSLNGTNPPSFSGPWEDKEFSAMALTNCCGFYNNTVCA
Protocol: ENT and CNT transporter interactions were investigated in transporter-overexpressing cell lines. Madin-Darby Canine Kidney II (MDCKII) cell lines overexpressing the human uptake transporters CNT1, CNT2, ENT1, and ENT2 were generated via lentiviral transduction. Cell cultures were maintained in Dulbecco’s modified Eagle’s medium (DMEM) and 4500 mg/L of glucose supplemented with GlutaMax^TM, 10% v/v fetal bovine serum (FBS), 100 units/mL penicillin, and 100 µg/mL streptomycin (all from Gibco/ThermoFisher, Waltham, MA, USA) at 37 °C in 5% CO2 at 95% humidity. For uptake inhibition assays, transporter-expressing cells and mock-transduced control cells were seeded on 96-well tissue culture plates at a density of 1 × 10^5 cells/well. Twenty-four hours after seeding, cells were rinsed twice with Krebs-Henseleit buffer (KH buffer, pH 7.4) and then preincubated for 30 min with solutions containing serial dilutions of the test compounds in KH at room temperature. Following preincubation, the solutions were removed, the cells were rinsed twice with KH buffer, and coincubation was started with a suitable radiolabeled substrate and the diluted series of test compounds. Assay conditions were as follows: 1 µM uridine (traced with 0.1 µCi ^3H-Uridine/well), 30 s (CNT1), and 1 min (CNT2, ENT1) incubations; 1 µM adenosine (traced with 0.1 µCi ^3H-Adenosine/well) and 2 min (ENT2) incubation. All experiments were conducted at room temperature. […] To determine the amounts of accumulated radiolabeled substrates, cell lysates mixed with a liquid scintillation cocktail were measured with a MicroBeta2 microplate counter (PerkinElmer, Singapore).
as §1

ENT1 = target: T3, ENT1 (Homo sapiens, UniProt Q99808); assay: ENT1-mediated uridine uptake in ENT1-MDCKII cells
T3 construct: expressed in transfected cells; host or cells: MDCKII (lentiviral transduction)
T3 sequence (Q99808 1-456): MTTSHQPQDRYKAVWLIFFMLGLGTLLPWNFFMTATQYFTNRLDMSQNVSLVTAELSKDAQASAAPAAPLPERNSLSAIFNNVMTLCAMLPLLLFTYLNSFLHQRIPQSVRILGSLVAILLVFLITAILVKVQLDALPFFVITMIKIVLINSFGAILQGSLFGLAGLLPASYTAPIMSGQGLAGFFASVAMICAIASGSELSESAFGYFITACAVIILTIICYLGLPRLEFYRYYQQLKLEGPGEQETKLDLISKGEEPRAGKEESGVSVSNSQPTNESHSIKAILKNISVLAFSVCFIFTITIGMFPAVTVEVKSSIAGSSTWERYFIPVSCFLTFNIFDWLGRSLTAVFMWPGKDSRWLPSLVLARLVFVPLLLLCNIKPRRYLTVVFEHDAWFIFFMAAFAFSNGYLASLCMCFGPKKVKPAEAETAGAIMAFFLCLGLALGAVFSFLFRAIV
Protocol: ENT and CNT transporter interactions were investigated in transporter-overexpressing cell lines. Madin-Darby Canine Kidney II (MDCKII) cell lines overexpressing the human uptake transporters CNT1, CNT2, ENT1, and ENT2 were generated via lentiviral transduction. Cell cultures were maintained in Dulbecco’s modified Eagle’s medium (DMEM) and 4500 mg/L of glucose supplemented with GlutaMax^TM, 10% v/v fetal bovine serum (FBS), 100 units/mL penicillin, and 100 µg/mL streptomycin (all from Gibco/ThermoFisher, Waltham, MA, USA) at 37 °C in 5% CO2 at 95% humidity. For uptake inhibition assays, transporter-expressing cells and mock-transduced control cells were seeded on 96-well tissue culture plates at a density of 1 × 10^5 cells/well. […] To determine the amounts of accumulated radiolabeled substrates, cell lysates mixed with a liquid scintillation cocktail were measured with a MicroBeta2 microplate counter (PerkinElmer, Singapore).
as §1

Compound	IC50 (CNT1)	inhibition of CNT1-mediated uridine uptake (CNT1; at 200 μM)	inhibition of CNT2-mediated uridine uptake (CNT2)	IC50 (CNT2; 1 µM uridine)	ENT1-mediated uridine transport, inhibited to % of the full activity (ENT1; at 200 μM)	inhibition at 200 µM (CNT1; read-out: inhibition of CNT1-mediated uridine uptake)	ENT1 uridine transport remaining, % of full activity at 200 µM (ENT1; read-out: ENT1-mediated uridine transport, inhibited to % of the full activity)
O=c1nc(NO)ccn1[C@@H]1O[C@H](CO)[C@@H](O)[C@H]1O [EIDD-1931]	18.8 µM	approximately 80%	strong inhibition	10.2 µM	about 50%		
CC(C)C(=O)OC[C@H]1O[C@@H](n2ccc(NO)nc2=O)[C@H](O)[C@@H]1O [EIDD-2801, Molnupiravir]	84.9 µM		less potently inhibited			~80%	~50%
